Data on two molecules can be found in patent publication US20050037446A1, “Agents that recognize src when phosphorylated at serine 17” (priority 2001, published 2005).

The test system of one assay is Raf-1 and Rap1. As to the kind of experiment: Association of Raf-1 with His-Rap1 (Ni-NTA pull-down), NIH3T3 cells. The assay is classed as cell-based. Particulars: Forskolin-stimulated NIH3T3 cells. The procedure:
NIH3T3 cells were transfected using Lipofectamine (see EXAMPLE 1) with polyhistidine-tagged Rap1 along with CBR or Cb1-ct (see EXAMPLE 2) as previously described (Schmitt and Stork, Mol. Cell. Biol. 21:3671-83, 2001; Schmitt and Stork, J. Biol. Chem. 275:25342-50,2000). Cells were left untreated or stimulated with Forskolin, as described in EXAMPLE 1. Subsequently, cells were lysed in ice-cold buffer containing 1% NP40, 10 mM Tris, pH 8.0, 20 mM NaCl, 30 mM MgCl2, 1 mM PMSF, and 0.5 mg/ml aprotinin and supernatants prepared by low speed centrifugation. Transfected His-Rap1 proteins were precipitated from supernatants containing equal amounts of protein using Ni-NTA agarose (Qiagen Inc., Chatswoth, Calif.) and washed with 20 mM imidazole in lysis buffer and eluted with 500 mM imidazole and 5 mM EDTA in phosphate-buffered saline. The eluates containing His-Rap1 proteins were separated on SDS-PAGE, blotted onto PVDF membranes, and Raf-1 proteins detected by Western blotting using anti-Raf-1 antibodies (Santa Cruz Biotechnology Inc.).

Another assay deals with ERK1/2. As to the kind of experiment: ERK1/2 phosphorylation Western blot, NIH3T3 cells. Format: cell-based. Particulars: inhibition of SFKs. As for the experimental part: To determine the role of SFKs in cAW's antagonism of extracellular signal regulated kinase (ERK) activation, the following methods were used. NIH3T3 cells were incubated in the presence or absence of either H89 or PP2 for 20 minutes, pretreated with Forskolin for five minutes, and then stimulated with 100 ng/ml, epidermal growth factor (EGF, Sigma), or 100 ng/ml platelet-derived growth factor (PDGF, Sigma) for five minutes, as described in EXAMPLE 1. Cell lysates were analyzed by Western blot for phosphorylation of endogenous ERK1/2 or total ERK2. To detect phosphorylation of endogenous ERK1/2, phosphorylation-specific ERK antibodies (PERK) that recognize phosphorylated ERK1 (pERK1) and ERK2 (pERK2), at residues threonine 183 and tyrosine 185 were used (New England Biolabs, Beverly, Mass.).

The test system of another assay is Ras. The assay is described as follows: Ras activation affinity assay in SYF and Src++ cells. Format: cell-based, mouse. The procedure:
Endogenous GTP-loaded Ras was determined using a Ras activation affinity assay as follows. Hek293 cells were grown, stimulated, and lysed as described above. Activated Ras was assayed as previously described (Schmitt and Stork, Mol. Cell. Biol. 21:3671-83, 2001). Briefly, equivalent amounts of lysates from stimulated cells were incubated with GST-Rafl-RBD (Ras-binding domain) as specified by the manufacturer (Upstate Biotechnology, Lake Placid, N.Y.). Proteins were eluted with 2×Laemmli buffer and applied to a 12% SDS polyacrylamide gel. Proteins were transferred to a PVDF membrane, blocked at room temperature for 1 hour in 5% milk and probed with either Ras or Flag antibody overnight at 4° C., followed by an HRP-conjugated anti-mouse secondary. Proteins were detected using enhanced chemiluminescence.
To determine which SFK was mediating these effects, cell lines derived from mouse embryo fibroblasts that lack SFKs, were used as described in Example 3. SYF and Srcd cells were transfected with Flag-Rap 1, and WT Src or pcDNA3 vector alone as described in Example 3. Cells were stimulated with isoproterenol or left untreated, and then cell lysates were examined for active GTP-loaded Rap1 (Flag-Rap1-GTP) as described in Examples 1 and 6. Isoproterenol's ability to activate Rap1 was absent in SYF cells, but was retained in Src^++ cells. […]

`CC(C)(C)n1nc(-c2ccc(Cl)cc2)c2c(N)ncnc21` [PP2, 4-amino-5-(4-chlorophenyl)-7-(t-butyl)pyazolo[3,4-d]pyrimidine]: in the assay on Raf-1 and Rap1, the “Effect on association between Raf-1 and Rap1” value is “blocked”. For the same molecule, in the assay with ERK1/2, the “Effect on EGF's or PDGF's activation of ERKs” value is “no observable effect” and the “Effect on Forskolin's inhibition of ERKs” value is “prevented Forskolin's inhibition of ERKs”.

For `CC(C)NCC(O)c1ccc(O)c(O)c1` (centres unmarked) [isoproterenol], the “Ras activation by agonist” value is “absent” in the assay on Ras (SYF cells) and “retained” in the assay on Ras (Src++ cells).
